Experiments:
[1] = Liberation of riboflavin from functional gel, passive vs artificial mastication; assay type: physicochemical; conditions: Khlôros functional gel, 0.9% riboflavin, 10 ml H2O/gel, after 60 seconds, detection at 445 nm
Method: • Material: • Khlôros functional gel (see examples I and II); • 0.9% Riboflavin; • Reactional media: 10 ml of H2O/gel; • Passive liberation of active ingredient (Riboflavin): no treatment on the gel; • Artificial mastication (active liberation): mimic the action of mastication →compression and soft shearing;
Detection of the liberation of riboflavin and conversion in mM by the spectroscopic evaluation at 445 nm.

[2] = Release of yohimbine from chewing gum masticated in water or artificial saliva; assay type: physicochemical; conditions: gum with Corynanthe yohimbe bark extract (8% yohimbine), artificially masticated 120 seconds in 10 ml, chromatography
Method: • Chewing gums are prepared following example xx, containing a bark extract of Corynanthe yohimbe (containing 8% of yohimbine); • Gums are artificially masticated for 120 seconds in 10 ml of water or artificial saliva; • The quantity of released yohimbine is analysed by chromatography.

Row | liberation of riboflavin after artificial mastication compared to passive liberation [1] | quantity of yohimbine released, masticated in saliva versus water [2] | Structure (SMILES)
1 | 23 times |  | Cc1cc2nc3c(=O)[nH]c(=O)nc-3n(C[C@H](O)[C@H](O)[C@H](O)CO)c2cc1C [riboflavin, Riboflavin]
2 |  | more than 5 time | COC(=O)[C@@H]1[C@H]2C[C@H]3c4[nH]c5ccccc5c4CCN3C[C@@H]2CC[C@@H]1O [yohimbine]

— US10111831B2, “Chewable vehicle for mouth absorption” (TECHNOLOGIES KHLOROS INC., priority 2011, dated 2018)
